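Test compounds were applied to cells in 96-well plates for 48 hours at 5 doses. The concentration for 50% growth inhibition is given as GI50.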 The source made the active and inactive calls. No stated cut-off is given here; in the data, active = GI50 up to about 1.1 µM and inactive = higher. Starred links: 1 amine or outer side, 2 acyl side, 3 side chain; linkers in the order of their positions; H or OH if unused. Non-standard residues stand in square brackets, D forms with d. Residues, ends and D or L forms follow the SMILES beside them. X35 = C=CCC(O[*:1])C(=O)[*:2]; NMeV = CN[CH](C(=O)O)C(C)C; NMeA = CN[CH](C)C(=O)O; βAla = NCCC(=O)O

Three molecules from ChEMBL document CHEMBL1201862, “PubChem BioAssay data set” (2004) can be followed below.

Among the test systems are SK-MEL-5; PC-3; UACC-257; HCC 2998; HCT-15; UO-31; HOP-92; CAKI-1; SR; MDA-MB-231; NCI/ADR-RES; OVCAR-5; MOLT-4; MCF7; NCI-H522; Hs-578T; SN12C; UACC-62; DU-145; A549.
What all share (experiment): DTP human tumour cell line panel, 48 h

For orientation: GI50 means the concentration at which growth is held to half of that of the control. For the molecule `CC(C)/C(Cl)=N\OC(=O)Nc1ccc(S(N)(=O)=O)cc1`, the GI50 is 15.9 µM (inactive) in the experiment with SK-MEL-5; 18.5 µM (inactive) with PC-3; 17.4 µM (inactive) in the experiment on UACC-257; 18 µM (inactive) in the experiment with HCC 2998; 16.6 µM in the experiment on HCT-15; 16.6 µM (inactive) in the experiment with UO-31. Also, the GI50 with HOP-92 is 5.25 µM (inactive); with CAKI-1, 17.3 µM (inactive); in the experiment on SR it was 2.08 µM (inactive); with MDA-MB-231, 12.7 µM (inactive); in the experiment with NCI/ADR-RES it was 18.7 µM (inactive); with OVCAR-5, 18.3 µM (inactive). The GI50 in the experiment on MOLT-4 was 2.32 µM (inactive); in the experiment with MCF7, 12.1 µM (inactive); with NCI-H522, 1.21 µM (inactive); in the experiment on Hs-578T, 25.2 µM (inactive); in the experiment with SN12C, 13.9 µM (inactive); in the experiment on UACC-62 it was 17.9 µM (inactive). The GI50 with DU-145 is 17.9 µM (inactive); in the experiment on A549, 20 µM (inactive).
Turning to `C=CCC1OC(=O)CCNC(=O)C(C)N(C)C(=O)C(C(C)C)N(C)C(=O)C(C(C)CC)NC(=O)C2CCCN2C1=O` (stereo not given) (cyclo([X35]PI[NMeV][NMeA][βAla]); configuration not given here), the GI50 was 2.44 µM (inactive) with SK-MEL-5; 5.85 µM (inactive) with PC-3; 9.44 µM (inactive) with UACC-257; 2.25 µM (inactive) with HCC 2998; 23.2 µM with HCT-15; 22.8 µM (inactive) in the experiment on UO-31. Besides, the GI50 in the experiment with HOP-92 was 21.7 µM (inactive); in the experiment on CAKI-1, 81.5 µM (inactive); in the experiment on SR it was 2.58 µM (inactive); in the experiment on MDA-MB-231, 1.62 µM (inactive); in the experiment with NCI/ADR-RES it was > 100 µM (inactive); with OVCAR-5, > 100 µM (inactive). The GI50 is 2.11 µM (inactive) in the experiment on MOLT-4; > 100 µM (inactive) in the experiment with MCF7; 16 µM (inactive) in the experiment on NCI-H522; 91.6 µM (inactive) with Hs-578T; > 100 µM (inactive) in the experiment with SN12C; 2.68 µM (inactive) with UACC-62. Moreover, the GI50 in the experiment on DU-145 was 44.9 µM (inactive); in the experiment on A549, 9.84 µM (inactive).
As to `CC[C@@]1(O)C(=O)OCc2c1cc1n(c2=O)Cc2cc3ccccc3nc2-1` [CAMPTOTHECIN], the concentration for 50% growth inhibition (GI50) was 0.0272 µM (active) with SK-MEL-5; 0.0644 µM (active) in the experiment with PC-3; 0.0543 µM (active) with UACC-257; 0.159 µM (active) with HCC 2998; 0.152 µM in the experiment with HCT-15; 0.0303 µM (active) in the experiment with UO-31. Also, the GI50 in the experiment on HOP-92 was 0.0337 µM (active); in the experiment on CAKI-1 it was 0.0118 µM (active); in the experiment with SR it was < 0.01 µM (active); in the experiment on MDA-MB-231, 0.938 µM (active); in the experiment with NCI/ADR-RES, 0.012 µM (active); with OVCAR-5, 0.0809 µM (active). In addition, the concentration for 50% growth inhibition (GI50) in the experiment with MOLT-4 was < 0.01 µM (active); in the experiment on MCF7, 0.0113 µM (active); in the experiment with NCI-H522, 0.0223 µM (active); in the experiment on Hs-578T it was 0.817 µM (active); in the experiment on SN12C it was 0.014 µM (active); with UACC-62 it was < 0.0106 µM (active). Also, the 50% growth inhibitory concentration (GI50) was < 0.01 µM (active) in the experiment on DU-145 and 0.0181 µM (active) in the experiment on A549.
